# Data: patent US4245107A, “Cephalosporin derivatives and process for preparing the same” (Asahi Kasei Kogyo Kabushiki Kaisha, priority 1974, dated 1981)
# Where two headings read alike, the source gives them in different places.
# Tests used:
# Type in all cases: cell-based
# Shigella sonnei E 33 = assay: MIC against Shigella sonnei E 33
# [1] = test system: Klebsiella pneumoniae, ATCC 10031; assay: MIC against Klebsiella pneumoniae ATCC 10031
# [2] = test system: Staphylococcus aureus, MS 27; assay: MIC against Staphylococcus aureus MS 27
# Escherichia coli, W 3630 = assay: MIC against Escherichia coli W 3630
# Pseudomonas aeruginosa = assay: MIC against Pseudomonas aeruginosa (strain not given)
# Escherichia coli, NIHJ = assay: MIC against Escherichia coli NIHJ
# [3] = test system: Salmonella enteritidis gaertner; assay: MIC against Salmonella enteritidis gaertner
# [4] = test system: Staphylococcus aureus, ATCC 6538 P; assay: MIC against Staphylococcus aureus ATCC 6538 P
# Proteus rettgeri, ACR = assay: MIC against Proteus rettgeri ACR; conditions: for MIC: Providencia rettgeri
# Enterobacter 0655 = assay: MIC against Enterobacter 0655
# Proteus vulgaris, OX 19 = assay: MIC against Proteus vulgaris OX 19; conditions: for minimum inhibitory concentration (MIC): Table 3
# Escherichia coli, RGN 14 = assay: MIC against Escherichia coli RGN 14; conditions: Table 3
# [5] = test system: Pseudomonas aeruginosa, IAM 1095; assay: MIC against Pseudomonas aeruginosa IAM 1095
# [6] = test system: Escherichia coli, RGN 238; assay: MIC against Escherichia coli RGN 238; conditions: Table 3
# [7] = test system: Gram-positive bacteria and Gram-negative bacteria; assay: antimicrobial / bacterium-inhibiting activity (in words)
# [8] = Table 1, read-out: minimum inhibitory concentration (MIC)
# [9] = Table 3, read-out: minimum inhibitory concentration (MIC)
smiles,measurement,setting,value
"CC(=O)OCC1=C(C(=O)O)N2C(=O)C(NC(=O)C[S+]([O-])c3cccs3)C2SC1 (single isomer, unassigned) [Comparative Example, 7-(2-thienylsulfinylacetamido)cephalosporanicacid, reference compound]",minimum inhibitory concentration (MIC),Shigella sonnei E 33; Table 1,25 µg/mL
same,minimum inhibitory concentration (MIC),[1]; Table 1,6.3 µg/mL
same,minimum inhibitory concentration (MIC),"[2]; Table 1, ATCC MS 27",6.3 µg/mL
same,minimum inhibitory concentration (MIC),"Escherichia coli, W 3630; Table 1",50 µg/mL
same,minimum inhibitory concentration (MIC),Pseudomonas aeruginosa; Table 1,100 µg/mL
same,minimum inhibitory concentration (MIC),"Escherichia coli, NIHJ; Table 1",6.3 µg/mL
same,minimum inhibitory concentration (MIC),[3]; Table 1,12.5 µg/mL
same,minimum inhibitory concentration (MIC),"[4]; Table 1, ATCC 6538 P",1.6 µg/mL
same,minimum inhibitory concentration (MIC),"Proteus rettgeri, ACR; Table 1",100 µg/mL
"CC(=O)OCC1=C(C(=O)O)N2C(=O)C(NC(=O)C[S+]([O-])c3cccs3)C2SC1 (single isomer, unassigned) [Example 1, 7-(2-thienylsulfinylacetamido)cephalosporanic acid]",minimum inhibitory concentration (MIC),Shigella sonnei E 33; Table 1,3.1 µg/mL
same,minimum inhibitory concentration (MIC),[1]; Table 1,0.8 µg/mL
same,minimum inhibitory concentration (MIC),"[2]; Table 1, ATCC MS 27",1.6 µg/mL
same,MIC,Pseudomonas aeruginosa; [8],100 µg/mL
same,minimum inhibitory concentration (MIC),"Escherichia coli, NIHJ; Table 1",1.6 µg/mL
same,minimum inhibitory concentration (MIC),[3]; Table 1,1.6 µg/mL
same,MIC,"[4]; ATCC6538, Table 1, ATCC 6538 P, read-out: minimum inhibitory concentration (MIC)",0.8 µg/mL
same,MIC,"Proteus rettgeri, ACR; [8]",100 µg/mL
"CC(=O)OCC1=C(C(=O)O)N2C(=O)C(NC(=O)C[S+]([O-])c3ccccc3)C2SC1 (single isomer, unassigned) [Example 19, 7-(phenylsulfinylacetamido)cephalosporanic acid]",minimum inhibitory concentration (MIC),Shigella sonnei E 33; Table 3,6.3
same,minimum inhibitory concentration (MIC),[1]; Table 3,1.6
same,MIC,Enterobacter 0655; [9],100 µg/mL
same,minimum inhibitory concentration (MIC),"[2]; Table 3, MS 27",0.8
same,minimum inhibitory concentration (MIC),"Proteus vulgaris, OX 19",1.6
same,minimum inhibitory concentration (MIC),"Escherichia coli, RGN 14",12.5
same,minimum inhibitory concentration (MIC),"Escherichia coli, NIHJ; Table 3",1.6
same,MIC,"[5]; IAM1095, Table 3, read-out: minimum inhibitory concentration (MIC)",100 µg/mL
same,minimum inhibitory concentration (MIC),[3]; Table 3,3.2
same,minimum inhibitory concentration (MIC),"[4]; Table 3, 6538 P",0.2
same,MIC,"Proteus rettgeri, ACR; [9]",100 µg/mL
"CC(=O)OCC1=C(C(=O)O)N2C(=O)C(NC(=O)C[S+]([O-])c3ccccc3)C2SC1 (single isomer, unassigned) [comparative product, 7-(Phenylsulfinylacetamido)cephalosporanic acid, reference compound]",minimum inhibitory concentration (MIC),Shigella sonnei E 33; Table 3,100
same,minimum inhibitory concentration (MIC),[1]; Table 3,50
same,minimum inhibitory concentration (MIC),Enterobacter 0655; Table 3,100
same,minimum inhibitory concentration (MIC),"[2]; Table 3, MS 27",50
same,minimum inhibitory concentration (MIC),"Proteus vulgaris, OX 19",100
same,minimum inhibitory concentration (MIC),"Escherichia coli, RGN 14",100
same,minimum inhibitory concentration (MIC),"Escherichia coli, W 3630; Table 3",100
same,minimum inhibitory concentration (MIC),"Escherichia coli, NIHJ; Table 3",100
same,minimum inhibitory concentration (MIC),[5]; Table 3,100
same,minimum inhibitory concentration (MIC),[3]; Table 3,50
same,minimum inhibitory concentration (MIC),"[4]; Table 3, 6538 P",25
same,minimum inhibitory concentration (MIC),[6],100
same,minimum inhibitory concentration (MIC),"Proteus rettgeri, ACR; Table 3",100
"Cc1nnc(SCC2=C(C(=O)O)N3C(=O)C(NC(=O)C[S+]([O-])c4cccs4)[C@H]3SC2)s1 (stereo partly drawn) [Example 3, 7-(2-thienylsulfinylacetamido)-3-(5-methyl-1,3,4-thiadiazol-2-ylthiomethyl)-3-cephem-4-carboxylic acid]","minimum inhibitory concentration (MIC), in words",[7]; versus product similarly derived from the compound of the Comparative Example,much superior
"Cn1nnnc1SCC1=C(C(=O)[O-])N2C(=O)C(NC(=O)C[S+]([O-])c3cccs3)[C@H]2SC1.[Na+] (stereo partly drawn) [Example 4, sodium 7-(2-thienylsulfinylacetamido)-3-(1-methyl-1H-tetrazol-5-ylthiomethyl)-3-cephem-4-carboxylate]",bacterium-inhibiting activity,[7]; versus product derived in the same manner from 2-thienylsulfinylacetic acid having [α]D^22° of -9.2°,much superior
"O=C(C[S+]([O-])c1cccs1)NC1C(=O)N2C(C(=O)[O-])=C(C[n+]3ccccc3)CSC12 (stereo not drawn) [Example 6, 7-(2-thienylsulfinylacetamido)-3-(1-pyridiniummethyl)-3-cephem-4-carboxylate]",antimicrobial activity,[7],excellent
"CC1=C(C(=O)O)N2C(=O)C(NC(=O)C[S+]([O-])c3cccs3)[C@H]2SC1 (stereo partly drawn) [Example 7, 7-(2-thienylsulfinylacetamido)-3-methyl-3-cephem-4-carboxylic acid]",microbial activity,[7]; versus product from 2-thienylsulfinylacetic acid having a negative specific rotary power,much superior
"CC(=O)OCC1=C(C(=O)O)N2C(=O)C(NC(=O)C[S+]([O-])c3ccncc3)C2SC1 (stereo not drawn) [Example 10, 7-(4pyridylsulfinylacetamido)cephalosporanic acid]",MIC,"Shigella sonnei E 33; Shigella sonnei, E33, Table 2",6.3 µg/mL
same,MIC,"[1]; ATCC10031, Table 2",0.8 µg/mL
same,MIC,"[2]; MS27, Table 2, MS 27",1.6 µg/mL
same,MIC,"Proteus vulgaris, OX 19; OX19, Table 2",1.6 µg/mL
same,MIC,"Escherichia coli, W 3630; W3630, Table 2",12.5 µg/mL
same,MIC,"Escherichia coli, NIHJ; Table 2",0.8 µg/mL
same,MIC,"[3]; Salmonella enterica, ENTERITIDIS, Table 2",3.2 µg/mL
same,MIC,"[4]; ATCC6538, Table 2, ATCC 6538 P, read-out: MIC",0.4 µg/mL
same,MIC,"Proteus rettgeri, ACR; Table 2, read-out: MIC",100 µg/mL
